Test results published in patent publication US10875834B2, “Prodrug and protected forms of 5-hydroxymethylfurfuranal (5-HMF) and its derivatives” (VIRGINIA COMMONWEALTH UNIVERSITY, priority 2016, dated 2020).
Values joined by “and” are separate entries in the source; they are usually repeats but may differ in a detail not shown here. Equal entries are not always repeated. “Also recorded” adds a separate entry of the source. Where two headings read alike, the source gives them in different places.

What was measured:
[1] = biological target: T1, sickle Hb oxygen affinity (Homo sapiens, UniProt P69905); test: Oxygen equilibrium curve (OEC) study, P50 shift of hemolysate from SS cells; format: cell-based; settings: for AP50 (%): 2 mM test compound, hemolysate of SS cells, mean ± SD, three experiments; for P50 shift relative to 5-HMF: 1, 2 and 5 mM
T1 construct: from tissue; host or cells: blood (red cells) of a subject with homozygous sickle cell disease; hemolysate analysed
T1 sequence (P69905 2-142 limits assumed): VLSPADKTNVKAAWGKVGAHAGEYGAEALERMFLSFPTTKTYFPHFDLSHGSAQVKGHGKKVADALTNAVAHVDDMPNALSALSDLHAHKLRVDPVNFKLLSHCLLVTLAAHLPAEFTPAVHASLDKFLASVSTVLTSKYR
From the text: (§1) The twelve compounds, VZHE004, VZHE006, VZHE007, VZHE005, VZHE011, VZHE013, VZHE014, VZHE015, VZHE016, 5-PMFC, 5-CMFC, 5-NMFC, and the parent compound (positive control) 5-HMF were investigated for their abilities to prevent hypoxia-induced RBC sickling (RBC morphology study), increase sickle Hb oxygen affinity (oxygen equilibrium curve; OEC study), and modify sickle Hb (adduct formation study) as previously published (Abdulmalik et al., Br. J Haematol., 2005, 128, 552; Safo et al, J. Med. Chem, 2004, 47, 4665). Briefly, blood suspensions from a subject with homozygous SCD (hematocrit: 20%) were incubated under air in the absence or presence of 1, 2 and 5 mM concentration of test compounds at 37° C. for 1 hr to ensure that binding had attained equilibrium. Following, the suspensions were incubated under hypoxic condition (4% oxygen/96% nitrogen) at 37° C. for 2 hr. Aliquot samples were fixed with 2% glutaraldehyde solution without exposure to air, and then subjected to microscopic morphological analysis. The residual samples were washed in phosphate-buffered saline, and hemolyzed in hypotonic lysis buffer for subsequent analyses.
(§2) For the OEC study, approximately 100 μl aliquot samples from clarified lysate obtained from the antisickling study were added to 4 ml of 0.1M potassium phosphate buffer, pH 7.0, in a cuvette and subjected to hemoximetry analysis using Hemox™ Analyzer (TCS Scientific Corp.) to assess P50 shifts. Finally, for the Hb adduct formation study, clarified lysates, also from the above antisickling study, were subjected to cation-exchange HPLC (Hitachi D-7000 Series, Hitachi Instruments, Inc., San Jose, Calif.), using a weak cation-exchange column (Poly CAT A: 30 mm×4.6 mm, Poly LC, Inc., Columbia, Md.).

sickle Hb (Hb S) = biological target: T2, sickle Hb (Hb S) (Homo sapiens, UniProt P69905); test: Hb adduct formation study (Hb S modification) with SS cells, cation-exchange HPLC; format: cell-based; settings: for Modified Hb (%): 2 mM test compound, SS cells suspensions (20% hematocrit), mean ± SD, three experiments; for Hb modification relative to 5-HMF: 1, 2 and 5 mM
T2 construct: from tissue; host or cells: blood (red cells) of a subject with homozygous sickle cell disease; hemolysate analysed
T2 sequence (P69905 2-142 limits assumed): as above
From the text: as §1, §2

[2] = tested on: homozygous sickle red blood cells (SS cells); test: Antisickling (RBC morphology) study under hypoxia; format: cell-based, human
From the text: as §1

sickle cell disease = settings: phase I/II human clinical studies; cited from earlier work
[3] = both in-vitro and in-vivo; cited from earlier work
Hb A = biological target: T3, Hb A (Homo sapiens, UniProt P69905); test: Time-dependent adduct formation study in normal whole blood; format: in vitro ADME; settings: 2 mM, up to 24 hr
T3 construct: time-dependent studies on Hb adduct formation using normal whole blood; from tissue; host or cells: normal human whole blood (30% hct)
T3 sequence (P69905 2-142 limits assumed): as above
T3 sequence (P68871 2-147 partner limits assumed): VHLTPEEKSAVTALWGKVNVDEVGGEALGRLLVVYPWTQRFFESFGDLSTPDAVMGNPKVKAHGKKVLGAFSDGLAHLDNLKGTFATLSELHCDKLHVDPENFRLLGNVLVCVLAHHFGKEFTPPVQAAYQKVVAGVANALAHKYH
Procedure: The compounds, VZHE004, VZHE006, VZHE007, VZHE005, VZHE011, VZHE013, VZHE014, VZHE015, VZHE016, 5-PMFC, 5-NMFC, and the control 5-HMF were used to conduct time-dependent studies on Hb adduct formation using normal whole blood. The study was performed in a 96-well deepwell (Thermo Scientific) plate, where each compound at 2 mM concentration was added to 600 μL of whole blood (30% hct) and incubated at 37° C. for 24 hr with shaking (at 140 rpm). At 0.5 hr, 1 hr, 2 hr, 4 hr, 6 hr, 8 hr and 24 hr time intervals, 75 μL aliquot of blood was removed from each well using a multichannel pipette and added to respective tubes containing 75 μL of Na cyanoborohydride and borohydride mix (1:1 v/v 50 mM stock) to terminate the Schiff-base reaction, fix the Schiff-base adducts and reduce the reduce free reactive aldehyde (Davies et al., Food Chem. Toxicol. 2009, 47, 1950). We have previously optimized these conditions. After mixing, the tubes were stored immediately at −80° C. until ready for analysis to determine Hb adduct formation using cation-exchange HPLC (Hitachi D-7000 Series, Hitachi Instruments, Inc., San Jose, Calif.).

Hb = Hb (Homo sapiens, UniProt P69905); test: Incubation of Hb with VZHE004 for three days, UPLC-MS analysis; format: in vitro ADME; settings: incubated with Hb for three days
Sequence of Hb (P69905 2-142 limits assumed): as the sequence (P69905 2-142 limits assumed) above
Sequence of Hb (P68871 2-147 partner limits assumed): as the sequence (P68871 2-147 partner limits assumed) above
From the text: The overall tetrameric structure is indistinguishable (rmsd ˜0.4 Å) from 1BBB or the R2 structure in complex with 5-HMF (PDB code 1QXE). Like 5-HMF we also observed a pair of VZHE004 molecules covalently bound to the N-terminal αVal1 amines (Schiff-base interaction) in a symmetry-related fashion at the α-cleft (FIG. 7). The electron density of VZHE004 was relatively weak especially at the methyl acetate position. As such, the compound was refined as 5-HMF at the α1Val1 site, while the full VZHE004 was modelled at the α2Val1 binding site but with the methyl acetate refined in two alternate conformations (FIG. 7a). However, to make sure that the disorder is not due to partial hydrolytic cleavage of the ester, Hb and VZHE004 were incubated for three days.

[4] = Homo sapiens, Erythrocyte, 2 mM test compound, SS cells 20% hematocrit, hypoxia 4% oxygen/96% nitrogen, mean ± SD, read-out: Inhibition of Sickling (%)
[5] = Homo sapiens, Erythrocyte, 2 mM, read-out: RBC sickling inhibition
[6] = Homo sapiens, Erythrocyte, 5 mM, read-out: RBC sickling inhibition
[7] = 2 mM test compound, SS cells 20% hematocrit, hypoxia 4% oxygen/96% nitrogen, mean ± SD

| Structure (SMILES) | AP50 (%) [1] | P50 shift relative to 5-HMF [1] | Modified Hb (%) (sickle Hb (Hb S)) | inhibition at 2000 µM [2, 4] | inhibition at 2000 µM [2, 5] | antisickling effect ([2]; over 1, 2 and 5 mM) | inhibition at 5000 µM [2, 6] | also measured |
| --- | --- | --- | --- | --- | --- | --- | --- | --- |
| O=Cc1ccc(COc2ccc(Cl)cc2)o1 [Compound 5-CMFC, 5-((4-chlorophenoxy)methyl)-2-furan carbaldehyde] | 13.2 ± 5.2% | significantly less P50 shift than 5-HMF; also recorded: lower degrees of shift than 5-HMF | 26.7 ± 6.5% | 2 ± 1.9% | < 10% | barely showed any antisickling activity; also recorded: poor antisickling effects |  | antisickling effect ([2]; 5 mM): barely showed any antisickling effect |
| O=Cc1ccc(CO)o1 [Compound 5-HMF, 5-hydroxymethyl-2-furfural, reference compound] | 33.4 ± 0.9% |  | 32.8 ± 1.6% | 25.7 ± 4.4% | 26% |  |  | effective dose (sickle cell disease): 2-4 gm; half-life in plasma [3]: 1 to 1.5 h; RBC sickling inhibition ([2]; 2 mM): ~23% and ~26% |
| O=Cc1ccc(COc2ccccc2[N+](=O)[O-])o1 [Compound 5-NMFC, 5-((2-nitrophenoxy)methyl)-2-furan carbaldehyde] | 13.4 ± 5.7% | significantly less P50 shift than 5-HMF; also recorded: lower degrees of shift than 5-HMF | 40.5 ± 17.6% | 10.3 ± 0.5% | < 10% | barely showed any antisickling activity; also recorded: poor antisickling effects | < 10% | metabolic profile / decline of Hb adduct in whole blood (Hb A): exhibit some resistance to metabolism; Hb modification relative to 5-HMF (sickle Hb (Hb S)): superior Hb modification; antisickling effect ([2]; 5 mM): barely showed any antisickling effect |
| O=Cc1ccc(COc2ccccc2)o1 [Compound 5-PMFC, 5-(phenoxymethyl)-2-furan carbaldehyde] | 45.4 ± 14.6% | better P50 sift than 5-HMF | 60.53 ± 5.3% | 94.7 ± 0.1% |  |  |  | metabolic profile / decline of Hb adduct in whole blood (Hb A): exhibit some resistance to metabolism; Hb modification relative to 5-HMF (sickle Hb (Hb S)): superior Hb modification; RBC sickling inhibition ([2]; 2 mM): ~95%; antisickling effect ([2]; 2 mM): attained maximum effect; inhibition at 1000 µM ([2]; Homo sapiens, Erythrocyte, 1 mM, read-out: RBC sickling inhibition): ~17% |
| CC(=O)OCc1ccc(C=O)o1 [VZHE004, (5-formylfuran-2-yl)methyl acetate] | 44.6 ± 11.9% |  | 43.5 ± 8.4% | 26.3 ± 4.4% |  |  | 60% | stability of the ester against hydrolytic cleavage (UPLC-MS) (Hb): intact; RBC sickling inhibition ([2]; 5 mM): ~60% |
| CC(C)(C)OC(=O)OCc1ccc(C=O)o1 [VZHE006, tert-Butyl ((5-formylfuran-2-yl)methyl) carbonate] | 44.8 ± 12.9% |  | 50.0 ± 3.0% | 71.6 ± 0.1% | 35 to 95% |  | > 95% |  |
| O=Cc1ccc(COC(=O)c2ccccc2)o1 [VZHE007, (5-Formylfuran-2-yl)methyl Benzoate] | 38.9 ± 11.9% |  | 44.5 ± 6.0% | 10 ± 5.9% |  | poor antisickling effects | ~83% |  |
| CCOCc1ccc(C=O)o1 [VZHE011, 5-(Ethoxymethyl)-2-furan Carboxadehyde] | 39.8 ± 0.8% |  | 40.4 ± 3.9% | 58.8 ± 7% | 35 to 95% |  |  | antisickling effect ([2]; 2 mM): superior |
| CC(C)(C)OCc1ccc(C=O)o1 [VZHE013, 5-(tert-Butoxymethyl)furan-2-carbaldehyde] | 24.0 ± 5.6% | weaker | 15.7 ± 4.3% | 7.4 ± 6.9% |  | very little antisickling activity; also recorded: barely showed any antisickling activity; also recorded: poor antisickling effects |  | % P50 shift ([1]; 1 mM): 16%; % P50 shift ([1]; 2 mM): 24%; % P50 shift ([1]; 5 mM): 46%; Hb modification relative to 5-HMF (sickle Hb (Hb S)): weaker adduct formation; sickling inhibition (antisickling effect) ([2]; at all three concentrations (1, 2 and 5 mM)): less than 5% |
| COP(=O)(OC)OCc1ccc(C=O)o1 [VZHE014, (5-Formylfuran-2-yl)methyl Dimethyl Phosphate] | 35.7 ± 8.1% |  | 19.7 ± 6.3% |  |  | poor antisickling effects |  | Inhibition of Sickling (%) [2, 7]: 8.4 ± 5.9%; RBC sickling inhibition ([2]; 5 mM): 43% and ~40% |
| CCCOCc1ccc(C=O)o1 [VZHE015, 5-(Propoxymethyl)-2-furan Carboxadehyde] | 44.0 ± 9.7% |  | 39.7 ± 8.2% | 62.9 ± 6.2% | 35 to 95% |  |  | antisickling effect ([2]; 2 mM): superior |
| CC(C)OCc1ccc(C=O)o1 [VZHE016, 5-(isopropoxymethyl)-2-furan Carboxadehyde] | 38.4 ± 10.4% |  | 36.4 ± 9.7% |  |  |  |  | RBC sickling inhibition ([2]; 2 mM): ~16%; Inhibition of Sickling (%) [2, 7]: 22.5 ± 8.8% |
